Reference: paper PMC11845477, “Exploring the principles behind antibiotics with limited resistance” (Nature Communications, 2025)

Experiments:
[1] = test system: E. coli BW25113: pUCacrAB; assay: AcrAB-TolC efflux overexpression screen, relative MIC; type: cell-based, Escherichia coli; conditions: pUCacrAB vs empty pUC118 control
Description: Fig. 6 The impact of AcrAB-TolC activity on antibiotic susceptibility. E. coli strains with AcrAB-TolC depletion (BW25113-ΔacrB) and overexpression (BW25113: pUCacrAB) were treated with various antibiotics, and the level of resistance was determined as minimum inhibitory concentration (MIC) relative to a wild-type strain, presented on a logarithmic scale (log2). Each bar represents the mean resistance level (susceptibility, i.e., level of resistance < 0; and resistance, i.e., level of resistance > 0) to antibiotics induced by acrAB overexpression (blue bars; E. coli with a multicopy plasmid of the acrAB genes (pUCacrAB)) and acrB deletion (red bars; mutant E. coli with acrB gene deletion (ΔacrB)) compared to the wild-type. Data are presented as mean values of 3 biological replicates ± SD. […] Detailed information on antibiotic and bacterial strain abbreviations is provided in Supplementary Data 1. Source data are provided as a Source Data file. For information on mode of action groups, refer to Table 1.
For the efflux deficiency screen, the ΔacrB mutant of E. coli K12 BW25113[86] and its equivalent wild-type control strain with intact gene were utilized. In contrast, BW25113 carrying a multicopy acrAB plasmid (pUCacrAB)[87] and its control strain harboring an empty pUC118 plasmid were used to overexpress the acrAB efflux system. According to established protocols via P1 transduction, the suitable acrB deletion mutant (ΔacrB BW25113) was created, while the pUCacrAB plasmid was kindly provided by Kunihiko Nishino and Akihito Yamaguchi (Osaka University, Osaka, Japan). In a prior study, both strains were employed. Since the copy number of the plasmid carrying the efflux pump is controlled by native promoters, external induction is unnecessary.
Antibiotic susceptibilities of these strains were evaluated using a modified version of the standard broth dilution method. In 96-well microtiter plates containing fresh MHB medium, or supplemented MS medium in case of SCH79797, ten-step serial dilutions of an antibiotic from a stock solution were made (2 wells per antibiotic concentration per strain). The two wells contained only supplemented media without any antibiotics […]. Strains were incubated overnight at 37 °C with continuous agitation. Additionally, plasmid containing strains were grown in the presence of 100 µg/mL ampicillin. The culture was diluted to yield a cell suspension with 5 ×10^5 cells/mL and then inoculated into the wells of the microtiter plate. To determine the medium’s background OD value, the first column of the 96-well plate contained solely MHB without inoculum. Prior to the measurement, the plates were incubated at 37 °C with continuous shaking at 900 rpm with 3 mm throw. OD600 values were determined in a microplate reader after 18 hours of incubation (Biotek Synergy 2). The minimum inhibitory concentration (MIC) was determined as the lowest concentration of antibiotic at which the OD600 values were less than 0.05 after subtracting the background value. The log2 of the relative MIC was computed using the following equation:2 log2relativeMICpUCacrAB=MICpUCacrAB/MICpUC118 3 log2relativeMICΔacrB=MICΔacrB/MICwt

[2] = test system: A. baumannii ATCC 17978 (SEN) and A. baumannii ATCC BAA-1605 (MDR); assay: Adaptive laboratory evolution (ALE), relative MIC of evolved lines; type: cell-based, Acinetobacter baumannii
Source text: Using the same set of bacterial strains, we initiated adaptive laboratory evolution with the aim to maximize the level of antibiotic resistance in the populations achieved during a longer, but fixed time period.
An established protocol for adaptive laboratory evolution[46],[73] was followed to propagate populations with the highest resistance levels. Starting with an antibiotic concentration that caused approximately 50% growth inhibition, ten parallel populations for each antibiotic-ancestor strain combination were grown for 72 hours at 37 °C with continuous shaking (300 RPM). MHB broth medium was used unless stated otherwise. After each incubation, 20 µl of each culture was transferred to four new wells containing fresh medium with increasing antibiotic concentrations (0.5×, 1×, 1.5×, and 2.5× the previous concentration) in a chessboard layout to monitor potential cross-contamination. Growth was monitored by measuring OD600 using a Biotek Synergy 2 microplate reader, and only populations grown in the highest drug concentration with an OD600 > 0.2 were transferred further.
A robotic liquid handling system was used to automatically prepare a 11 to 16-step serial dilution in 384-well microtiter plates (Greiner). A final concentration of 5 × 10^5 bacterial cells per mL were inoculated into each well containing 60 µL MHB medium. Bacterial cultures were incubated at 37 °C with continuous shaking (Infors shaker, 900 rpm with 3 mm throw) for 18 hours (2 replicates from each). Cell growth was monitored by measuring the optical density (OD600 values, using Biotek Synergy microplate reader). MIC was defined as the antibiotic concentration of complete growth inhibition (i.e., OD600 < 0.05). Relative MIC was calculated as follows:1 relativeMIC=MICevolved/MICancestor […]
Supplementary Figure 4. Resistance levels following adaptive laboratory evolution across bacterial strains. The level of resistance was measured as the fold change in relative MIC between evolved and ancestral strains after ~60 days of adaptive laboratory evolution. Data are grouped by bacterial strain (A. baumannii (AB), E. coli (EC), K. pneumoniae (KP), and P. aeruginosa (PA)) and categorized as either multidrug-resistant (MDR) or sensitive (SEN). Each data point represents a laboratory evolved line, and boxplots show the median, first and third quartiles, with whiskers indicating the 5th and 95th percentiles.
Statistical analysis was performed using two-sided Dunn’s post-hoc test with Benjamini-Hochberg correction for multiple comparisons (****/ ***/ **/ * indicates p < 0.0001/ 0.001/ 0.01/ 0.05). For detailed information on antibiotic and bacterial species, see Supplementary Table 1. For mode of action groups, refer to Table 1. Source data are provided as a Source Data file.

## CN(C)[C@@H]1C(O)=C(C(N)=O)C(=O)[C@@]2(O)C(O)=C3C(=O)c4c(O)c(NC(=O)CN5CCCC5)cc(F)c4C[C@H]3C[C@@H]12 [Eravacycline]
[1]; replicate 1
  Relative MIC (log2): 0
[1]; replicate 2
  Relative MIC (log2): 0
[1]; replicate 3
  Relative MIC (log2): 0
[2]; AB-MDR (ATCC BAA 1605), evolved line 1, MIC of evolved line / MIC of ancestor
  Relative MIC: 16
[2]; AB-MDR (ATCC BAA 1605), evolved line 2, MIC of evolved line / MIC of ancestor
  Relative MIC: 32
[2]; AB-MDR (ATCC BAA 1605), evolved line 3, MIC of evolved line / MIC of ancestor
  Relative MIC: 32
[2]; AB-MDR (ATCC BAA 1605), evolved line 4, MIC of evolved line / MIC of ancestor
  Relative MIC: 32
[2]; AB-MDR (ATCC BAA 1605), evolved line 5, MIC of evolved line / MIC of ancestor
  Relative MIC: 16
[2]; AB-MDR (ATCC BAA 1605), evolved line 6, MIC of evolved line / MIC of ancestor
  Relative MIC: 32
[2]; AB-MDR (ATCC BAA 1605), evolved line 7, MIC of evolved line / MIC of ancestor
  Relative MIC: 32
[2]; AB-MDR (ATCC BAA 1605), evolved line 8, MIC of evolved line / MIC of ancestor
  Relative MIC: 32
[2]; AB-MDR (ATCC BAA 1605), evolved line 9, MIC of evolved line / MIC of ancestor
  Relative MIC: 32
[2]; AB-MDR (ATCC BAA 1605), evolved line 10, MIC of evolved line / MIC of ancestor
  Relative MIC: 32
[2]; AB-MDR (Acinetobacter baumannii ATCC BAA 1605), evolved line 2 adapted to the named antibiotic
  Relative MIC (log10): 1.505
[2]; AB-MDR (Acinetobacter baumannii ATCC BAA 1605), evolved line 3 adapted to the named antibiotic
  Relative MIC (log10): 1.505
[2]; AB-MDR (Acinetobacter baumannii ATCC BAA 1605), evolved line 4 adapted to the named antibiotic
  Relative MIC (log10): 1.505
[2]; AB-MDR (Acinetobacter baumannii ATCC BAA 1605), evolved line 6 adapted to the named antibiotic
  Relative MIC (log10): 1.505
[2]; AB-MDR (Acinetobacter baumannii ATCC BAA 1605), evolved line 10 adapted to the named antibiotic
  Relative MIC (log10): 1.505
[2]; AB-SEN (ATCC 17978), evolved line 1, MIC of evolved line / MIC of ancestor
  Relative MIC: 64
[2]; AB-SEN (ATCC 17978), evolved line 2, MIC of evolved line / MIC of ancestor
  Relative MIC: 128
[2]; AB-SEN (ATCC 17978), evolved line 3, MIC of evolved line / MIC of ancestor
  Relative MIC: 128
[2]; AB-SEN (ATCC 17978), evolved line 4, MIC of evolved line / MIC of ancestor
  Relative MIC: 128
[2]; AB-SEN (ATCC 17978), evolved line 5, MIC of evolved line / MIC of ancestor
  Relative MIC: 128
[2]; AB-SEN (ATCC 17978), evolved line 6, MIC of evolved line / MIC of ancestor
  Relative MIC: 128
[2]; AB-SEN (ATCC 17978), evolved line 7, MIC of evolved line / MIC of ancestor
  Relative MIC: 128
[2]; AB-SEN (ATCC 17978), evolved line 8, MIC of evolved line / MIC of ancestor
  Relative MIC: 64
[2]; AB-SEN (ATCC 17978), evolved line 9, MIC of evolved line / MIC of ancestor
  Relative MIC: 128
[2]; AB-SEN (ATCC 17978), evolved line 10, MIC of evolved line / MIC of ancestor
  Relative MIC: 128
[2]; AB-SEN (Acinetobacter baumannii ATCC 17978), evolved line 2 adapted to the named antibiotic
  Relative MIC (log10): 2.107
[2]; AB-SEN (Acinetobacter baumannii ATCC 17978), evolved line 4 adapted to the named antibiotic
  Relative MIC (log10): 2.107
[2]; AB-SEN (Acinetobacter baumannii ATCC 17978), evolved line 6 adapted to the named antibiotic
  Relative MIC (log10): 2.107
[2]; AB-SEN (Acinetobacter baumannii ATCC 17978), evolved line 8 adapted to the named antibiotic
  Relative MIC (log10): 1.806
[2]; AB-SEN (Acinetobacter baumannii ATCC 17978), evolved line 9 adapted to the named antibiotic
  Relative MIC (log10): 2.107
[2]; Acinetobacter baumannii ATCC 17978 (AB-SEN), evolved line 1
  Relative MIC: 64
[2]; Acinetobacter baumannii ATCC 17978 (AB-SEN), evolved line 2
  Relative MIC: 128
[2]; Acinetobacter baumannii ATCC 17978 (AB-SEN), evolved line 3
  Relative MIC: 128
[2]; Acinetobacter baumannii ATCC 17978 (AB-SEN), evolved line 4
  Relative MIC: 128
[2]; Acinetobacter baumannii ATCC 17978 (AB-SEN), evolved line 5
  Relative MIC: 128
[2]; Acinetobacter baumannii ATCC 17978 (AB-SEN), evolved line 6
  Relative MIC: 128
[2]; Acinetobacter baumannii ATCC 17978 (AB-SEN), evolved line 7
  Relative MIC: 128
[2]; Acinetobacter baumannii ATCC 17978 (AB-SEN), evolved line 8
  Relative MIC: 64
[2]; Acinetobacter baumannii ATCC 17978 (AB-SEN), evolved line 9
  Relative MIC: 128
[2]; Acinetobacter baumannii ATCC 17978 (AB-SEN), evolved line 10
  Relative MIC: 128
[2]; Acinetobacter baumannii ATCC BAA 1605 (AB-MDR), evolved line 2
  Relative MIC: 32
[2]; Acinetobacter baumannii ATCC BAA 1605 (AB-MDR), evolved line 4
  Relative MIC: 32
[2]; Acinetobacter baumannii ATCC BAA 1605 (AB-MDR), evolved line 5
  Relative MIC: 16
[2]; Acinetobacter baumannii ATCC BAA 1605 (AB-MDR), evolved line 6
  Relative MIC: 32
[2]; Acinetobacter baumannii ATCC BAA 1605 (AB-MDR), evolved line 7
  Relative MIC: 32
[2]; Acinetobacter baumannii ATCC BAA 1605 (AB-MDR), evolved line 8
  Relative MIC: 32
[2]; Acinetobacter baumannii ATCC BAA 1605 (AB-MDR), evolved line 9
  Relative MIC: 32
[2]; Acinetobacter baumannii ATCC BAA 1605 (AB-MDR), evolved line 10
  Relative MIC: 32
[2]; Acinetobacter baumannii ATCC BAA 1605 (AB-MDR), evolved line 1
  Relative MIC: 16
[2]; Acinetobacter baumannii ATCC BAA 1605 (AB-MDR), evolved line 3
  Relative MIC: 32
